The record followed here is patent publication US20090081154A1, “Attractant composition for yellowjackets” (priority 2006, published 2009).

The test system of experiment [1] is yellowjackets. The experiment in a line: Three ester trap trials taken together (totals and conclusions). In kind it is in vivo, Vespula pensylvanica. The following applies: for relative attractiveness of the esters, in words: heptyl butyrate, octyl butyrate and their combination compared; for Total numbers of yellowjackets caught for all trials: sum of Tables 1-3. The protocol: Several experiments were performed to determine the relative attractiveness of heptyl butyrate, octyl butyrate and a 1:1 mixture of the two esters. In an initial experiment, one trap each containing octyl butyrate, heptyl butyrate, or a 1:1 mixture of the two esters, was placed around the perimeter of the north lawn of the Lawrence Hall of Science, University of California, Berkeley. After approximately 1 month, the yellowjackets in each trap were collected and counted. […] The results are shown below in Table 1: A second experiment was set up at the Lawrence Hall of Science upper patio, placing 4 sets of the three treatments randomly around the patio, a total of 12 traps. One trap containing octyl butyrate was lost and not counted. After twenty days, the total numbers of yellowjackets caught for each of the treatments is shown in table 2 below: A third trial was performed in the same location using a total of 12 traps. There were 4 repetitions of each treatment presented. The total number of yellowjackets caught per each treatment is shown in table 3: Total numbers of yellowjackets caught for all trials are given below: The trial from Jul. 21-Aug. 10, 2005 cannot be assumed to be an anomaly.

Another experiment concerns Vespula pensylvanica. As to the kind of experiment: Initial field trap experiment: octyl butyrate, heptyl butyrate or 1:1 mixture, LHS north lawn. The format is in vivo. To be noted: one trap per composition, 6/15-7/21 (approximately 1 month), LHS NL. The protocol:
Several experiments were performed to determine the relative attractiveness of heptyl butyrate, octyl butyrate and a 1:1 mixture of the two esters. In an initial experiment, one trap each containing octyl butyrate, heptyl butyrate, or a 1:1 mixture of the two esters, was placed around the perimeter of the north lawn of the Lawrence Hall of Science, University of California, Berkeley. After approximately 1 month, the yellowjackets in each trap were collected and counted. […]

For experiment [2], the system named is yellowjackets. As to the kind of experiment: Third field trap trial, LHS upper patio, 12 traps. In kind it is in vivo, Vespula pensylvanica. To be noted: 8/11-9/7/05, LHS UP; for total YJ: 4 repetitions of each treatment. The protocol:
A third trial was performed in the same location using a total of 12 traps. There were 4 repetitions of each treatment presented.

Experiment [3] deals with yellowjackets. The experiment in a line: Second field trap experiment, LHS upper patio, 4 sets of three treatments. The format is in vivo, Vespula pensylvanica. To be noted: 7/21-8/10/05, twenty days, LHS UP, 4 traps per treatment (one octyl butyrate trap lost). The text has this:
A second experiment was set up at the Lawrence Hall of Science upper patio, placing 4 sets of the three treatments randomly around the patio, a total of 12 traps. One trap containing octyl butyrate was lost and not counted.

Experiment [4] has as its system yellowjackets. The experiment in a line: Field trap test octyl butyrate vs. OB + 1% trans-2-hexenol, Strawberry Baseball Diamonds. In kind it is in vivo, Vespula pensylvanica. The following applies: 8 ml attractant, 27 days; for # of YJ (single trap): per trap, t-2-H 1% by weight. As for the experimental part:
In another experiment conducted at the Strawberry Baseball Diamonds, octyl butyrate was compared to octyl butyrate+t-2-hexenol, where the trans-2-hexenol was present in 1% concentration by weight. […] For each treatment, 8 ml of attractant was used. The traps were collected and counted after 27 days. The total number of yellowjackets caught in the three traps with octyl butyrate alone is 113. A total of 170 yellowjackets were caught in the three traps baited with octyl butyrate +t-2-hexenol.

The test system of experiment [5] is yellowjackets. As to the kind of experiment: Field trap test octyl butyrate vs. OB + 1% MSA + 1% t-2-H, LHS North Lawn. The format is in vivo, Vespula pensylvanica. The following applies: three traps per treatment, 8 ml attractant, 1% each MSA and t-2-H; listed as OB. As for the experimental part:
In a separate experiment, a mixture of octyl butyrate and the two kairomones methyl salicylate (MSA) and trans-2-hexenol (t-2-H), where the two kairomones were each present in 1% by weight quantities, was tested against octyl butyrate alone. Three repetitions of each treatment were tested in yellowjacket traps placed around the Lawrence Hall of Science North Lawn on Jul. 21, 2005. Each lure contained 8 ml of attractant. The traps were collected and the yellowjackets removed and counted on Aug. 11, 2005. […] A total of 40 yellowjackets were caught using the combination OB+MSA+t-2-H, whereas only 31 yellowjackets were caught in traps baited with OB alone.

In experiment [6] the test system is yellowjackets. As to the kind of experiment: Field trap test octyl butyrate vs. OB + 1% methyl salicylate, LHS Back Plaza. The format is in vivo, Vespula pensylvanica. To be noted: 1% MSA. The protocol:
In one experiment, octyl butyrate (OB) was compared with OB containing 1% methyl salicylate (MSA). Six traps were placed at the Lawrence Hall of Science Back Plaza on Jul. 21, 2005. Three of the traps were baited with octyl butyrate alone. The other three were baited with the mixture of 1% methyl salicylate in octyl butyrate. Each of the traps contained 8ml of attractant dispensed on a cotton pad, which was placed inside the trap. The traps were collected on Sep. 8, 2005, and the yellowjackets counted.

Several values for one entry are separate records, joined by “and”; a condition that tells them apart may be missing. Identical values can stand only once.

`CCCCCCCOC(=O)CCC` [heptyl butyrate]: in the experiment with yellowjackets [1], the “relative attractiveness of the esters, in words” value is “more effective in luring and capturing yellowjackets than octyl butyrate”; the “Total numbers of yellowjackets caught for all trials” value turned out to be 625. The “# YJ caught” value with Vespula pensylvanica was 148. For the same compound, in the experiment with yellowjackets [2], the “Avg catch per trap” value is listed as 61 and the “total YJ” value was determined as 242. Also, in the experiment with yellowjackets [3], the “Total # YJ” value turned out to be 235.
In the case of `CCCCCCCCOC(=O)CCC` [octyl butyrate], the “# of YJ (single trap)” value was 38 and 41 in the experiment on yellowjackets [4] (listed as OB); 34 with yellowjackets [4] (listed as Octyl (OB)); 0 in the experiment with yellowjackets [6] (per trap, 8 ml attractant on cotton pad, LHS Back Plaza, collected Sep. 8, 2005). For the same compound, the “Total YJ per Treatment” value in the experiment with yellowjackets [4] (three traps per treatment, t-2-H 1%) was determined as 113. Further, the “Totals (YJ per treatment)” value with yellowjackets [5] is 31 and 30; in the experiment with yellowjackets [6] (three traps per treatment, 8 ml attractant), “no yellowjackets were caught”. The “relative attractiveness of the esters, in words” value with yellowjackets [1] is recorded as “inferior attractant to heptyl butyrate”. The “Total numbers of yellowjackets caught for all trials” value with yellowjackets [1] was 315. In the experiment on Vespula pensylvanica, the “# YJ caught” value is 36. Also, the “Avg catch per trap” value in the experiment with yellowjackets [2] came to 45. Moreover, the “total YJ” value in the experiment with yellowjackets [2] is given as 134. For the same compound, in the experiment on yellowjackets [3], the “Total # YJ” value is 145.
